Experimental data taken from US8119666B2, “1,2,5-thiazolidine derivatives useful for treating conditions mediated by protein tyrosine phosphatases (PTPase)” (Novartis AG, priority 2005, dated 2012).

Target: T1, human PTP-1B (Homo sapiens, UniProt P18031)
T1 construct: recombinant human PTP-1B[1-298] or PTP-1B[1-322]
T1 sequence (P18031 1-298 limits assumed): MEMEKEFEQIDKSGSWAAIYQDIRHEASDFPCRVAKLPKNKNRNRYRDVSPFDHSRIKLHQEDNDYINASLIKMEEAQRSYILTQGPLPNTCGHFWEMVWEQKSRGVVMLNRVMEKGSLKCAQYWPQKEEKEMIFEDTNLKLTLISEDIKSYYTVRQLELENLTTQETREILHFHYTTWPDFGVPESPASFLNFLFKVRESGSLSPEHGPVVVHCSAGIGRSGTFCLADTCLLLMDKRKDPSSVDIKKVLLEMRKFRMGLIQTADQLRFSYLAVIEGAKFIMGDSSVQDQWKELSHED
Test: PTP-1B inhibitory activity in vitro (IC50)
Type: biochemical
Conditions: inhibitory activity to human PTP-1B; which of the described assay formats was used is not stated
Method: Assessment of human PTP-1B (hPTP-1B) activity in the presence of various agents is determined by measuring the amount of inorganic phosphate released from a phosphopeptide substrate using a 96-well microtiter plate format. The assay (100 μL) is performed in an assay buffer comprised of 50 mM TRIS (pH 7.5), 50 mM NaCl, 3 mM DTT at ambient temperature. The assay is typically performed in the presence of 0.4% dimethyl sulfoxide (DMSO). However, concentrations as high as 10% are used with certain poorly soluble compounds. […] Inorganic phosphate, a product of the enzyme reaction, is quantitiated after 15 min as the green color resulting from complexing with the Malichite reagent and is determined as an A620 using a Molecular Devices (Sunnyvale, Calif.) SpectraMAX Plus spectrophotometer. […] Activity is defined as the net change in absorbance resulting from the activity of the uninhibited hPTP-1B[1-411] minus that of a tube with acid-inactivated hPTP-1B[1-411].
Alternatively, the assessment of human PTP-1B activity in the presence of various agents may be determined by measuring the hydrolysis products of known competing substrates. For example, cleavage of substrate para-nitrophenylphosphate (pNPP) results in the release of the yellow-colored para-nitrophenol (pNP) which can be monitored in real time using a spectrophotometer. […]

Work on `CS(=O)(=O)Oc1c(Cl)cccc1Cc1ccc(N2CC(=O)NS2(=O)=O)c(O)c1` [Example No. 52-1, Methanesulfonic acid 2-chloro-6-[3-hydroxy-4-(1,1,4-trioxo-1,2,5-thiadiazolidin-2-yl)-benzyl]-phenyl ester] yielded an IC50 of 126 nM.

For `COc1ccc(Cc2ccc(N3CC(=O)NS3(=O)=O)c(O)c2)c(OS(C)(=O)=O)c1` [Example No. 52-3, Methanesulfonic acid 2-[3-hydroxy-4-(1,1,4-trioxo-1,2,5-thiadiazolidin-2-yl)-benzyl]-5-methoxyphenyl ester], the IC50 was 133 nM.
